What was measured:
aged Fisher rats = assay: Erectile function: intracavernous pressure after cavernous nerve stimulation in aged rats; format: in vivo, rat; conditions: ABH 6 mg/kg in drinking water 28 days
Procedure: Aged (22-26 months) Fisher rats were given either ABH (6 mg/kg in their drinking water) or plain water for 28 days. Young (4-8 months) were given plain water for 28 days. Rats were then anesthetized and erectile function was evaluated as an indicator of vascular function, by measuring intra-cavernous pressure following electrical stimulation of the cavernous nerve using an electrode placed around the pelvic nerve which innervates the penis (Cama, et al., 2003 Biochemistry 42: 8445-8451). The change in intracavernosal pressure was measured via a catheter placed in the corpora cavernosa. A range of stimulation frequencies were used to measure relaxation effects (and consequentially vascular dependent erectile responses) over their entire functional range.

arginase II = biological target: T1, arginase II (Homo sapiens, UniProt P78540); conditions: cited from earlier work
T1 sequence (P78540 23-354): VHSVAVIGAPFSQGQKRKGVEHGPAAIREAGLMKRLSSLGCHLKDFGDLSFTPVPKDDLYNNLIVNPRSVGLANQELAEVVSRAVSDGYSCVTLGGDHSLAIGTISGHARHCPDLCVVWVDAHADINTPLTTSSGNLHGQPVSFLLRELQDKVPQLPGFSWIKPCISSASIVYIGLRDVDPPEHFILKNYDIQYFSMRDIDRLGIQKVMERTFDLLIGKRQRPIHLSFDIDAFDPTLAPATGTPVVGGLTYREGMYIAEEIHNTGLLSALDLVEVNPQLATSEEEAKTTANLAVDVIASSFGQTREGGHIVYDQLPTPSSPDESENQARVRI

rat aortic rings = assay: Vasorelaxation of aortic rings in organ chambers after 28 days oral ABH; format: in vivo
Procedure: To investigate whether these changes in vascular stiffness could be related to specific measures of endothelial function, rats were euthanized following treatment, and the thoracic aortas dissected and placed in organ chambers as previously described (White, et al., 2006 Hypertension 47: 245-251). Rat aortic rings were pre-constricted using phenylephrine (1 μM), and vasorelaxant response to the endothelial-dependent (NO mediated) vasodilator acetylcholine (ACh), administered at 1 μM to 10 μM, was determined. […] ABH had no effect on vascular endothelial relaxation in young rats.

arginase I = biological target: T2, arginase I (Homo sapiens, UniProt P05089); conditions: cited from earlier work
T2 sequence (P05089 1-322): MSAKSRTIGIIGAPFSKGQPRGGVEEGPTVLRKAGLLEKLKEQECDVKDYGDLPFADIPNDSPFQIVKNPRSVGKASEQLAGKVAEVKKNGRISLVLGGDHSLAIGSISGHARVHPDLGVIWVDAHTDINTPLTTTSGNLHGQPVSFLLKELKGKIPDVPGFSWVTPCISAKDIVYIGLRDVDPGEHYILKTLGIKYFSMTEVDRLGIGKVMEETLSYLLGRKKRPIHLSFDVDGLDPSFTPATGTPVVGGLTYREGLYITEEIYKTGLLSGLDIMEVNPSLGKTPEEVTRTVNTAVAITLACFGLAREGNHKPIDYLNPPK

eNOS = eNOS activity (L-arginine to L-citrulline) in human diabetic corpus cavernosum extracts; format: biochemical; conditions: 1 mM ABH added to diabetic penile extracts
Description: In order to study the role of arginase in the development of these defects, corpus cavernosum tissue extracts were obtained from non-diabetic and diabetic men undergoing placement of a penile prosthesis for the management of their severe ED (Bivalacqua, et al., 2001 Biochem. Biophys. Res. Commun. 283: 923-927). […] Constitutive nitric oxide synthase activity (eNOS activity; calcium-dependent conversion of L-arginine to L-citrulline) is […] in human corporal tissue from diabetic patients vs. controls (See FIG. 7C), *P<0.05 when compare to controls; in the presence of the selective arginase inhibitor ABH, eNOS activity in human diabetic corpora caversosa is restored, **P<0.05 when compared to diabetic (Bivalacqua, et al., 2001 Biochem. Biophys. Res. Commun. 283: 923-927).
Diabetic corporal tissue extracts were prepared for the measurement of arginase activity by the production of urea in the presence of labeled arginine (FIG. 7B).

[1] = cavernous nerve stimulation, vs controls

SMILES: N[C@@H](CCCCB(O)O)C(=O)O [ABH, 2(S)-Amino-6-boronohexanoic acid]
- all penile hemodynamic parameters after CNS (aged Fisher rats): marked improvement
- ratio of mean peak intracavernous pressure (ICP) to mean arterial pressure (MAP) (aged Fisher rats; [1]): marked increase
- total ICP (area under the erectile curve) (aged Fisher rats; [1]): marked increase
- potency as inhibitor of arginase II (arginase II): most potent inhibitor
- responses to the endothelial-independent NO donor SNP in aortic rings (rat aortic rings; after 28 days oral ABH): not affected
- vascular relaxation to acetylcholine (ACh) in aortic rings (rat aortic rings; aged rats, 28 days oral ABH, rings pre-constricted with phenylephrine 1 μM): substantially improved
- vascular endothelial relaxation in aortic rings (rat aortic rings; young rats): no effect
- potency as inhibitor of arginase I (arginase I): most potent inhibitor
- eNOS activity (eNOS): improved to levels that were comparable to those of control corpus cavernosum
